molecular target: Muscarinic acetylcholine receptor M3 (Cavia porcellus, UniProt Q8VH26); test: The compound was tested for antagonistic activity against Muscarinic acetylcholine receptor M3 in guinea pig trachea; format: functional; conditions: read-out: pA2 (converted)
Sequence (Q8VH26 whole entry): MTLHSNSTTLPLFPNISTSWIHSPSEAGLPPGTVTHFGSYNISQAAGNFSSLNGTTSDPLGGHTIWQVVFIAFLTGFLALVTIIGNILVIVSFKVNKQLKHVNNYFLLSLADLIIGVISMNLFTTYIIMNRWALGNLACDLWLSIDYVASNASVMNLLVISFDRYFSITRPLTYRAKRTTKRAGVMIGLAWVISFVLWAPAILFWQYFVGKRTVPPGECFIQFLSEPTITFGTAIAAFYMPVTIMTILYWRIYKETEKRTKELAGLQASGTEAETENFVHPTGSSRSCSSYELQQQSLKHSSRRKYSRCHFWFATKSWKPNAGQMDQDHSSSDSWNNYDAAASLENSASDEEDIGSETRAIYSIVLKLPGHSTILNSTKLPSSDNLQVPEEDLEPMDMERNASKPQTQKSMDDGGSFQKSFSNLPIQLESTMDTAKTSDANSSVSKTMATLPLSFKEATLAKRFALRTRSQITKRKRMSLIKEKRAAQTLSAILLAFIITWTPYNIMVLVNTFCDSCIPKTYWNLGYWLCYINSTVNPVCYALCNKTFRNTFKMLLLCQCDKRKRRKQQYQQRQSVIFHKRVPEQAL

Point of comparison: `CCCOc1ccccc1C(=O)NC1CCCCC1CN1CCCCC1` (stereo not drawn), Kb 14800 nM. Against it:
- CCN(CC)CCOc1ccccc1C(=O)Cc1ccccc1 — 69-fold lower, 214 nM
- O=C(Nc1ccccc1)OC1CCCCC1CN1CCOCC1 (stereo not drawn) — 5.1-fold lower, 2880 nM

— ChEMBL document CHEMBL1132349, “Lead generation using pharmacophore mapping and three-dimensional database searching: application to muscarinic M(3) receptor antagonists” (J Med Chem, 1999)
